Assay results taken from the NIST ThermoML archive (doi:10.1016/j.jct.2011.07.006).

Experiment: xn = mol fraction of the nth substance listed
Settings: Gas, Buoyancy - hydrostatic balance with magnetic suspension - one sinker

N#N [nitrogen] + O=C=O
mass density [kg/m3]
Settings | x2 = 0.1001 | x2 = 0.1505
250.04 K, 12011 kPa | 188.824 | –
250.04 K, 14015 kPa | 220.196 | –
250.04 K, 16024 kPa | 250.228 | –
250.04 K, 18041 kPa | 278.626 | –
250.04 K, 19866 kPa | 302.682 | –
250.05 K, 1985.1 kPa | 29 | –
250.05 K, 3997.3 kPa | 59.733 | –
250.05 K, 5998.8 kPa | 91.41 | –
250.05 K, 8000 kPa | 123.81 | –
250.05 K, 10007 kPa | 156.529 | –
250.06 K, 1944.1 kPa | – | 29.337
250.06 K, 3982.7 kPa | – | 61.879
250.06 K, 5984.1 kPa | – | 95.441
250.06 K, 7996.2 kPa | – | 130.387
250.06 K, 16016 kPa | – | 267.875
250.06 K, 18019 kPa | – | 298.361
250.06 K, 19997 kPa | – | 326.225
250.07 K, 10003 kPa | – | 165.836
250.07 K, 12006 kPa | – | 201.013
250.07 K, 14014 kPa | – | 235.308
275.01 K, 6002 kPa | 80.825 | –
275.01 K, 7997.9 kPa | 108.505 | –
275.02 K, 1988.5 kPa | – | 26.992
275.02 K, 3997.1 kPa | 53.276 | –
275.02 K, 4000.6 kPa | – | 55.255
275.02 K, 5998 kPa | – | 84.088
275.02 K, 7994.3 kPa | – | 113.405
275.02 K, 10004 kPa | 136.29 | –
275.02 K, 12009 kPa | 163.678 | –
275.02 K, 14013 kPa | 190.433 | –
275.02 K, 16022 kPa | 216.33 | –
275.02 K, 18057 kPa | 241.448 | –
275.02 K, 19841 kPa | 262.442 | –
275.03 K, 9995.5 kPa | – | 142.952
275.03 K, 12000 kPa | – | 172.315
275.03 K, 14001 kPa | – | 201.02
275.03 K, 15981 kPa | – | 228.492
275.03 K, 17994 kPa | – | 255.193
275.03 K, 19983 kPa | – | 280.214
299.96 K, 17994 kPa | – | 224.784
299.96 K, 19165 kPa | 226.098 | –
299.96 K, 19977 kPa | – | 247.119
299.97 K, 1992.1 kPa | – | 24.615
299.97 K, 1997.9 kPa | 23.945 | –
299.97 K, 3982.3 kPa | – | 49.692
299.97 K, 3996.5 kPa | 48.22 | –
299.97 K, 5996.4 kPa | 72.692 | –
299.97 K, 5999.2 kPa | – | 75.467
299.97 K, 7999.7 kPa | 97.214 | –
299.97 K, 8007.8 kPa | – | 101.3
299.97 K, 10002 kPa | 121.553 | –
299.97 K, 10003 kPa | – | 126.921
299.97 K, 12006 kPa | 145.55 | –
299.97 K, 12008 kPa | – | 152.379
299.97 K, 13991 kPa | – | 177.09
299.97 K, 14010 kPa | 169.025 | –
299.97 K, 15969 kPa | – | 201.068
299.97 K, 16014 kPa | 191.829 | –
299.97 K, 17869 kPa | 212.244 | –
324.98 K, 1996 kPa | 21.979 | –
324.98 K, 1996.1 kPa | – | 22.645
324.98 K, 3995.9 kPa | – | 45.557
324.98 K, 3996.2 kPa | 44.111 | –
324.98 K, 5991.8 kPa | 66.201 | –
324.98 K, 5996.6 kPa | – | 68.599
324.98 K, 7997.6 kPa | – | 91.632
324.98 K, 8019.2 kPa | 88.521 | –
324.98 K, 9996.9 kPa | – | 114.495
324.98 K, 9998.9 kPa | 110.087 | –
324.98 K, 11991 kPa | – | 137.002
324.98 K, 11999 kPa | 131.525 | –
324.98 K, 13983 kPa | 152.335 | –
324.98 K, 14014 kPa | – | 159.405
324.98 K, 16001 kPa | 172.971 | –
324.98 K, 16006 kPa | – | 180.933
324.98 K, 18001 kPa | 192.79 | –
324.98 K, 18016 kPa | – | 202.007
324.98 K, 19621 kPa | 208.36 | –
324.98 K, 19978 kPa | – | 221.898
349.96 K, 1996.1 kPa | 20.34 | –
349.96 K, 3996.6 kPa | 40.709 | –
349.96 K, 5996.7 kPa | 60.978 | –
349.97 K, 1995.9 kPa | – | 20.947
349.97 K, 3995.3 kPa | – | 41.993
349.97 K, 5996.9 kPa | – | 63.049
349.97 K, 7995.4 kPa | – | 83.959
349.97 K, 7995.8 kPa | 81.051 | –
349.97 K, 9997.5 kPa | 100.892 | –
349.97 K, 9999.5 kPa | – | 104.724
349.97 K, 11998 kPa | 120.373 | 125.127
349.97 K, 13995 kPa | 139.425 | –
349.97 K, 14004 kPa | – | 145.221
349.97 K, 16000 kPa | 158.084 | –
349.97 K, 16008 kPa | – | 164.842
349.97 K, 17994 kPa | 176.127 | –
349.97 K, 18008 kPa | – | 183.902
349.97 K, 19378 kPa | 188.339 | –
349.97 K, 19983 kPa | – | 202.168
374.95 K, 1963.6 kPa | – | 19.172
374.95 K, 3953.7 kPa | – | 38.571
374.95 K, 5995.6 kPa | – | 58.378
374.95 K, 7997.3 kPa | – | 77.627
374.95 K, 9986.3 kPa | – | 96.527
374.95 K, 11945 kPa | – | 114.852
374.96 K, 13990 kPa | – | 133.615
374.96 K, 15999 kPa | – | 151.646
374.96 K, 17992 kPa | – | 169.101
374.96 K, 19972 kPa | – | 185.971
374.97 K, 1974.6 kPa | 18.733 | –
374.97 K, 3962.2 kPa | 37.494 | –
374.97 K, 5994.5 kPa | 56.518 | –
374.97 K, 7989.9 kPa | 74.983 | –
374.97 K, 9982.5 kPa | 93.148 | –
374.97 K, 11981 kPa | 111.044 | –
374.97 K, 13972 kPa | 128.504 | –
374.97 K, 15966 kPa | 145.587 | –
374.98 K, 17960 kPa | 162.237 | –
374.98 K, 18719 kPa | 168.45 | –
400.02 K, 1995.3 kPa | – | 18.223
400.02 K, 3995.7 kPa | – | 36.397
400.02 K, 5995.4 kPa | – | 54.424
400.02 K, 7991.2 kPa | – | 72.219
400.02 K, 9990.8 kPa | – | 89.804
400.02 K, 11986 kPa | – | 107.065
400.02 K, 13988 kPa | – | 124.054
400.02 K, 15977 kPa | – | 140.583
400.02 K, 17818 kPa | – | 155.538
400.03 K, 3994.9 kPa | 35.321 | –
400.03 K, 9992.9 kPa | 86.844 | –
400.04 K, 1995.9 kPa | 17.722 | –
400.04 K, 5992.1 kPa | 52.72 | –
400.04 K, 7980.9 kPa | 69.818 | –
400.04 K, 11987 kPa | 103.403 | –
400.04 K, 13992 kPa | 119.725 | –
400.04 K, 15984 kPa | 135.572 | –
400.04 K, 17815 kPa | 149.796 | –
400.04 K, 18908 kPa | 158.136 | –
